Measured values from ChEMBL document CHEMBL5465560, “Selectivity Literature for EUbOPEN Chemogenomic Library” (2024).
One block for each compound: values may come before it.

What was measured:
[1] = biological target: T1, Eukaryotic elongation factor 2 kinase (Homo sapiens) (UniProt O00418); experiment: Selectivity interaction (Upstate Kinase Profiler service (Millipore)) EUB0000056c EEF2K; settings: at 1 µM
T1 sequence (whole entry): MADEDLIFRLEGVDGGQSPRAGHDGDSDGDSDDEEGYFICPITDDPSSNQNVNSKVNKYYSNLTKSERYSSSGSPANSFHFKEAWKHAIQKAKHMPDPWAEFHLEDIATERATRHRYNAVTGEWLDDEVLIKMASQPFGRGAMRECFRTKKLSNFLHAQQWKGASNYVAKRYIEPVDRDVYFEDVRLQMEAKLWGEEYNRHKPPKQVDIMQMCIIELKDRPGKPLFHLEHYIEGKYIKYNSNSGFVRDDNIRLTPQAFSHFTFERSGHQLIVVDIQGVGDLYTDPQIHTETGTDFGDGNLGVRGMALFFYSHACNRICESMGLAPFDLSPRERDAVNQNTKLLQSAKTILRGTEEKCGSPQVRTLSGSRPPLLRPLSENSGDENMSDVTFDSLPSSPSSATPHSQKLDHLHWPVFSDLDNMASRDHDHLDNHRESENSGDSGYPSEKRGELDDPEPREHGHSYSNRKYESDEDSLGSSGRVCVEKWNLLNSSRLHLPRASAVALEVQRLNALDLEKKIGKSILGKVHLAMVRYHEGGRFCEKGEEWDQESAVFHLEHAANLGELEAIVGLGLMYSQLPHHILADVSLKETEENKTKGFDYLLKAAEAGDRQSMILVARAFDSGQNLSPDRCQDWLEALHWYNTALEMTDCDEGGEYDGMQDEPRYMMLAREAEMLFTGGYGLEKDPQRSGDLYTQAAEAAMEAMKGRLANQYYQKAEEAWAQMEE

[2] = biological target: T2, Dual specificity mitogen-activated protein kinase kinase 6 (Homo sapiens) (UniProt P52564); experiment: Selectivity interaction (Kinase panel (DSF assay)) EUB0001559a MAP2K6
T2 sequence (whole entry): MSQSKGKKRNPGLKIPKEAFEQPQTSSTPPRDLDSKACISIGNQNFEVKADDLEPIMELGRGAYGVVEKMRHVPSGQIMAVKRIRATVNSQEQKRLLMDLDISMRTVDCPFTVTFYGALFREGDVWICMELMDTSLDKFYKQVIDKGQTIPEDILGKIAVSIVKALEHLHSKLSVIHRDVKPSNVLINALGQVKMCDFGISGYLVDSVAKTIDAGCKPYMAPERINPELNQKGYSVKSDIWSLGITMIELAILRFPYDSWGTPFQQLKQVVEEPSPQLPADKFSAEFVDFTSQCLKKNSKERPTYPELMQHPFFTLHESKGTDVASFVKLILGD

[3] = biological target: T3, Peripheral plasma membrane protein CASK (Homo sapiens) (UniProt O14936); experiment: Selectivity interaction (KinomeScan (DiscoverX)) EUB0000595a CASK; settings: at 10 µM
T3 sequence (whole entry): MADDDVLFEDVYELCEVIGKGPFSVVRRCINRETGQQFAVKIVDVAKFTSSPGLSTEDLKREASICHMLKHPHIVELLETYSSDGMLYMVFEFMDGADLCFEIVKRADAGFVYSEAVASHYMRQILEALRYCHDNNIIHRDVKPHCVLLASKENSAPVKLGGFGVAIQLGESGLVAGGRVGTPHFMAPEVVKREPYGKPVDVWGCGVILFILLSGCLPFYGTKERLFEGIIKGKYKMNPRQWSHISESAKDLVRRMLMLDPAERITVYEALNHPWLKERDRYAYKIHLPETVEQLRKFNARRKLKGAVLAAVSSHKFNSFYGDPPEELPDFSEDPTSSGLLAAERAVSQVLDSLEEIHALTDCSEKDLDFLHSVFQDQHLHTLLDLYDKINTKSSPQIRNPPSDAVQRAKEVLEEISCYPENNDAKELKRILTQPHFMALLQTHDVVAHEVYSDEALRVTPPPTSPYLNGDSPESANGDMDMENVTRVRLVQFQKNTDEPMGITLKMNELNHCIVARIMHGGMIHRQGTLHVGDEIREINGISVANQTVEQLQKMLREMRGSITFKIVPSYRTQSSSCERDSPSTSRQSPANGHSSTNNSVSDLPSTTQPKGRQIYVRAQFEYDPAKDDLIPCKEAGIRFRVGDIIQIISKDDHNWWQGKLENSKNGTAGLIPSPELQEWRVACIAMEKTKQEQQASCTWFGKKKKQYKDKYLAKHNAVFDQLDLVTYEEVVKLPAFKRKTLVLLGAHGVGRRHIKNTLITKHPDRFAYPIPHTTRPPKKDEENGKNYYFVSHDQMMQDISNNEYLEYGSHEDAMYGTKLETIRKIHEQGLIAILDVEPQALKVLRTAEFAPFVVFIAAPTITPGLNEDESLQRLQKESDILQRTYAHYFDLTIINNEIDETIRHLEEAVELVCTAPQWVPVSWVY

[4] = biological target: Serine/threonine-protein kinase 25 (Homo sapiens) (UniProt O00506); experiment: Selectivity interaction (KinomeScan (DiscoverX)) EUB0001049a STK25; settings: at 1 µM
Chain of Serine/threonine-protein kinase 25 (Homo sapiens) (O00506 whole entry, looked up): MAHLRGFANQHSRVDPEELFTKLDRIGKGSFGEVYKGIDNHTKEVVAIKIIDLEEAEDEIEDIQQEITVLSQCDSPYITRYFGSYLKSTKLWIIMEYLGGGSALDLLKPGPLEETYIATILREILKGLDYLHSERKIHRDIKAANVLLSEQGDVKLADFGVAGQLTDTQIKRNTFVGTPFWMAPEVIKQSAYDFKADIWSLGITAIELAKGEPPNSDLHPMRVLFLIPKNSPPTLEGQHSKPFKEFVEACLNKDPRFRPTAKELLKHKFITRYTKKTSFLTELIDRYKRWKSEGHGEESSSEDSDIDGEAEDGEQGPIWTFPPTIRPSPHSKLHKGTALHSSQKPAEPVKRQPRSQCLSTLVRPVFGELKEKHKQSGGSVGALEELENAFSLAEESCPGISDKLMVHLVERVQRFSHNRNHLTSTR

[5] = biological target: Vascular endothelial growth factor receptor 3 (Homo sapiens, UniProt P35916)
Chain of Vascular endothelial growth factor receptor 3 (P35916 whole entry): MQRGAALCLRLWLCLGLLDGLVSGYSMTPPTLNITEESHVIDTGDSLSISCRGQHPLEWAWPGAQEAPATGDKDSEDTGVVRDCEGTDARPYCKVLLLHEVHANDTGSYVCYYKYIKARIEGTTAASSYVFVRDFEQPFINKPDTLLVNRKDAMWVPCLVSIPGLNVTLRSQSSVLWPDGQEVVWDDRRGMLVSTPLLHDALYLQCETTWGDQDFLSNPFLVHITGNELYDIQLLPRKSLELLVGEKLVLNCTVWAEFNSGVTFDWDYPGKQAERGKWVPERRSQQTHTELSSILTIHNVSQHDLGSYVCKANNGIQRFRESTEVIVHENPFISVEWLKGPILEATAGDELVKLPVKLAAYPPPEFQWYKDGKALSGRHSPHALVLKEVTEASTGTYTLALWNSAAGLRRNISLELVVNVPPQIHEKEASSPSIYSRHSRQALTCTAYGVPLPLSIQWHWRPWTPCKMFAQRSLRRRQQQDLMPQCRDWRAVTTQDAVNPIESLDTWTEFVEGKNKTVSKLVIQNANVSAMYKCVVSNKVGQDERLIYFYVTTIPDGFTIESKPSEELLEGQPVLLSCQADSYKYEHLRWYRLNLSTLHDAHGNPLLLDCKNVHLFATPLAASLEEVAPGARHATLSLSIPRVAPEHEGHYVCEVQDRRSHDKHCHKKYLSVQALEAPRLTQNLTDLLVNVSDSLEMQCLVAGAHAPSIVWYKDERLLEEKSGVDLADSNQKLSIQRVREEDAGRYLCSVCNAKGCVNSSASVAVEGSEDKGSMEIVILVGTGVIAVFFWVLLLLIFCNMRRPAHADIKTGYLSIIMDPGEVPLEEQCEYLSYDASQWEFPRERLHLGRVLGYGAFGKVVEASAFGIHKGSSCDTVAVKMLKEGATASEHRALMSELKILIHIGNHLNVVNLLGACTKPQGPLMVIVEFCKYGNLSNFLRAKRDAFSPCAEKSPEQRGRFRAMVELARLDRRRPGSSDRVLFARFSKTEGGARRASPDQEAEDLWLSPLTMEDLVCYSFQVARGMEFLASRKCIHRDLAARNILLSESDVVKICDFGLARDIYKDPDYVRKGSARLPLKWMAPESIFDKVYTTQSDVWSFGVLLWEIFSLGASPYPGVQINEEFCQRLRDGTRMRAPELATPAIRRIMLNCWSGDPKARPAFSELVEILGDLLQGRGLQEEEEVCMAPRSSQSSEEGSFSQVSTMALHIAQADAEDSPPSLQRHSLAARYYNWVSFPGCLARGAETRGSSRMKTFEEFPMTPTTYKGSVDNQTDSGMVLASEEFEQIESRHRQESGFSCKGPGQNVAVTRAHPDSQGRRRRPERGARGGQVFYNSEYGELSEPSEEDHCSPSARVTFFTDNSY

[6] = biological target: Maternal embryonic leucine zipper kinase (Homo sapiens) (UniProt Q14680); experiment: Selectivity interaction (KinomeScan (DiscoverX)) EUB0000045b MELK
Chain of Maternal embryonic leucine zipper kinase (Homo sapiens) (Q14680 whole entry, looked up): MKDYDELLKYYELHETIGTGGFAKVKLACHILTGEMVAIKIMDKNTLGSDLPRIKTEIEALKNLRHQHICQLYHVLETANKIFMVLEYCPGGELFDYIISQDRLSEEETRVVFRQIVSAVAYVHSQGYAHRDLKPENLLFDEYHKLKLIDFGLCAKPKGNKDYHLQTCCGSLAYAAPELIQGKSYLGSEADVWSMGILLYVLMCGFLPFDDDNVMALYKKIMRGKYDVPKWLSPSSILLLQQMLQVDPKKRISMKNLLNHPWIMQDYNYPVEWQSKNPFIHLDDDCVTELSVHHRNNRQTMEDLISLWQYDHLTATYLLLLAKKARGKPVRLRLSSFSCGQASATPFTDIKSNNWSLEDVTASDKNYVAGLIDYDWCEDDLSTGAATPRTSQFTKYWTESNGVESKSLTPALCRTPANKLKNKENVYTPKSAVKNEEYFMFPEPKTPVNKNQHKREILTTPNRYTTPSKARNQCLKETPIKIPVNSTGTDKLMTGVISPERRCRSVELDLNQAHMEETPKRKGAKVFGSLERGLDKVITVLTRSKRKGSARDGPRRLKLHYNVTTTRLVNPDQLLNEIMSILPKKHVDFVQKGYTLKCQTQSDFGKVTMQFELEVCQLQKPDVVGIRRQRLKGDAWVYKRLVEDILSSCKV

[7] = biological target: Ephrin type-A receptor 5 (Homo sapiens) (UniProt P54756); experiment: Selectivity interaction (KinomeScan (DiscoverX)) EUB0001079a EPHA5; settings: at 1 µM
Chain of Ephrin type-A receptor 5 (Homo sapiens) (P54756 whole entry): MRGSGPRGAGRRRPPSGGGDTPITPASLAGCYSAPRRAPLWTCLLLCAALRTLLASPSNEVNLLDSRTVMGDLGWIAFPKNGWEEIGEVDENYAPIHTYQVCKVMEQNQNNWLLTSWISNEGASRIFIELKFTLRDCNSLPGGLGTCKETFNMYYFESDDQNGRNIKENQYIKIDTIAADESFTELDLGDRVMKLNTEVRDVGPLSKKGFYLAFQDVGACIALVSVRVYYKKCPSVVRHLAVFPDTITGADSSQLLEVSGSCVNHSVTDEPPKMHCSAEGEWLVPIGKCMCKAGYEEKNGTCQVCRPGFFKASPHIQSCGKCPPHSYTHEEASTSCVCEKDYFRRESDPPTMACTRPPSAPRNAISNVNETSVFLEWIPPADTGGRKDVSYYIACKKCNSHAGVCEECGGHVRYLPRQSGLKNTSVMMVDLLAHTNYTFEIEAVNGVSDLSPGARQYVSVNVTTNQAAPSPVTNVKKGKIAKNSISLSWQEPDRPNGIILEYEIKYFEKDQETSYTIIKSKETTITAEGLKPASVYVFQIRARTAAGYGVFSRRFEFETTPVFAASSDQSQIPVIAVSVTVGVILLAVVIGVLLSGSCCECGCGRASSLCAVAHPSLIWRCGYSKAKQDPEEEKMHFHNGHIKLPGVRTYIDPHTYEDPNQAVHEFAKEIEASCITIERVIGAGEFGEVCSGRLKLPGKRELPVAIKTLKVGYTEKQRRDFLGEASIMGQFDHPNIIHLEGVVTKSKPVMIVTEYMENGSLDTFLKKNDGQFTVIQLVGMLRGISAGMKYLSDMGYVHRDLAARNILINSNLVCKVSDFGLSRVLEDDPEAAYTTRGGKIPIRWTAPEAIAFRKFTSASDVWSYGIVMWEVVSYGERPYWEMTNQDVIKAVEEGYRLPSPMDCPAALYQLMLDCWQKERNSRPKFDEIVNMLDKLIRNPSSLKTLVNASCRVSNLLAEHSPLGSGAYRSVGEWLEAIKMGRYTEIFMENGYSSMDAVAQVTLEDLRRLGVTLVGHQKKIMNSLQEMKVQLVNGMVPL

[8] = biological target: Myosin light chain kinase family member 4 (Homo sapiens, UniProt Q86YV6); experiment: Selectivity interaction (Enzymatic assay) EUB0001550a MYLK4
Chain of Myosin light chain kinase family member 4 (Q86YV6 whole entry): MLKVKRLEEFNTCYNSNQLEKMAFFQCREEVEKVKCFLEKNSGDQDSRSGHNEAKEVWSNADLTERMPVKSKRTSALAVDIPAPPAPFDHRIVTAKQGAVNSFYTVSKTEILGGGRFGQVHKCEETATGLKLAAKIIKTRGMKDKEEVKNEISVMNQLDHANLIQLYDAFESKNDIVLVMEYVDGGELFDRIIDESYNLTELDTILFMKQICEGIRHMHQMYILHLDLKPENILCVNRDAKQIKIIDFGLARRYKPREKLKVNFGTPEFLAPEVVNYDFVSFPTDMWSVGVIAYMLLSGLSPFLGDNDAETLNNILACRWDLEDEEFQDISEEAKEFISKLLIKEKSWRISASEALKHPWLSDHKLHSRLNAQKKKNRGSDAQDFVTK

[9] = biological target: Phosphatidylinositol 4-phosphate 5-kinase type-1 alpha (Homo sapiens) (UniProt Q99755); experiment: Selectivity interaction (KinomeScan (DiscoverX)) EUB0000092b PIP5K1A; settings: at 10 µM
Chain of Phosphatidylinositol 4-phosphate 5-kinase type-1 alpha (Homo sapiens) (Q99755 whole entry): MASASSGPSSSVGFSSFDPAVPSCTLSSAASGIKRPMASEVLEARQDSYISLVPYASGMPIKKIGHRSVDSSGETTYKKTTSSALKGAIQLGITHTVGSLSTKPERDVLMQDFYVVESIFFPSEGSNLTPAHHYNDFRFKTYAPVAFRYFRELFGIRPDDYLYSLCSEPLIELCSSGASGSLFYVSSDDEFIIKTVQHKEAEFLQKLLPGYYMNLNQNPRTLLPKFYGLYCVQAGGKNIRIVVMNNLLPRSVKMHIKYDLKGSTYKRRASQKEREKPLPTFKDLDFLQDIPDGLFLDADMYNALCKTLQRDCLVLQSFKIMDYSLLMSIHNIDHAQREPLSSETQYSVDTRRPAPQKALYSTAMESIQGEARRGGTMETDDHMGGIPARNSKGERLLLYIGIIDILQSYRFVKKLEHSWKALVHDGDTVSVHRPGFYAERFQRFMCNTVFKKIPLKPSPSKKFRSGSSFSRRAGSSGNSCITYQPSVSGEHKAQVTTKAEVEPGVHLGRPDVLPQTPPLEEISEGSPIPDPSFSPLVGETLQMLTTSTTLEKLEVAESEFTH

[10] = biological target: Ephrin type-A receptor 5 (Homo sapiens) (UniProt P54756); experiment: Selectivity interaction (KinomeScan (DiscoverX)) EUB0000092b EPHA5; settings: at 10 µM

- % of inhibition [1]: -6%
Structure (SMILES): Cc1ccc(-c2ccc3c(ccc4sc5c(c43)NC[C@@H](C)NC5=O)n2)cn1

- dTM [2]: 0 K
Structure (SMILES): CN(C(=O)c1cnn2cccnc12)c1cc2c(cc1N1CCOCC1)C(=O)N(C[C@@H](F)C(C)(C)O)C2

Structure (SMILES): COCC(=O)NC/C=C/c1ccc2ncnc(Nc3ccc(Oc4ccc(C)nc4)c(C)c3)c2c1 [CP-724714]
- % of control [3]: 100%

Structure (SMILES): COc1cc(Nc2nc(C)cc(-c3cnn4nc(OC)ccc34)n2)cc(C(F)(F)F)c1
- % of control [4]: 91%

- IC50 [5]: > 10 µM
Structure (SMILES): CCc1cccc(CC)c1NC(=O)c1nn(C)c2c1CCc1cnc(Nc3ccc(C(=O)NC4CCN(C)CC4)cc3OC(F)(F)F)nc1-2

Structure (SMILES): C=CC(=O)Nc1cc(-n2c(=O)ccc3cnc4ccc(-c5ccc(NS(C)(=O)=O)cc5)cc4c32)ccc1C
- % of control ([6]; at 1 µM): 100%
- % of control ([6]; at 10 µM): 75%

Structure (SMILES): Nc1cnc(N2CCc3cc(S(=O)(=O)Nc4c(F)cc(Cl)cc4F)cc(N4CCCC4=O)c32)nc1 [TP-020n]
- % of control [7]: 100%

- IC50 [8]: 66 nM
Structure (SMILES): CN(C)CC#Cc1ccc2[nH]c3c(c2c1)-c1nc(N)ncc1CCC3

Structure (SMILES): CCC(=O)N1CCN(c2ccc(-n3c(=O)ccc4cnc5ccc(-c6cnc7ccccc7c6)cc5c43)cc2C(F)(F)F)CC1
- % of control [9]: 89%
- % of control [10]: 100%
